Legend:
[1] = target: Matrix metalloproteinase-9 (Homo sapiens, UniProt P14780); assay type: cell-based;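 also: inhibition of isolated MMP-9 enzyme activity toward a synthetic peptide substrate, from the DrugMatrix protease screening panel; in other assays of this panel Not Active means under 50% inhibition at 10 µM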
[2] = DRUGMATRIX: Atrial Natriuretic Factor (ANF) radioligand binding (ligand: [125I] ANF (rat)); assay type: cell membranes, Cavia porcellus, Dunkin-Hartley, Adrenal gland, Membrane; details: Not Active = under 50% inhibition at 10 µM
[3] = target: Cytochrome P450 2C19 (Homo sapiens, UniProt P33261); details: bti-tn-5b1-4; also: in other assays of this panel Not Active means under 50% inhibition at 10 µM
Cytochrome P450 2C19, sequence (P33261 whole entry): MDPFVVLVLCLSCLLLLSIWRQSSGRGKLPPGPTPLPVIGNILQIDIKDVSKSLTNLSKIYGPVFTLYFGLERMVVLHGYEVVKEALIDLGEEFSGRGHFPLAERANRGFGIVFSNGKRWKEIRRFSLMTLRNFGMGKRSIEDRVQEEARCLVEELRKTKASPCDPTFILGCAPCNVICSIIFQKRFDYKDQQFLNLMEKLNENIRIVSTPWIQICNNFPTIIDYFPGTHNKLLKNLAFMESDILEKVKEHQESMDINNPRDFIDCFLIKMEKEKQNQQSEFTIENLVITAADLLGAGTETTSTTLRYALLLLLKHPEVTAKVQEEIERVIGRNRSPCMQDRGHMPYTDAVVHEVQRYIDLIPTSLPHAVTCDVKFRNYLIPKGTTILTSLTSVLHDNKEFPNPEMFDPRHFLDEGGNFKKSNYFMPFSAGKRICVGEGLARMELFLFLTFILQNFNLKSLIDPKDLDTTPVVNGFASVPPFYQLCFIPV

[4] = target: T1, Endothelin-1 receptor (Homo sapiens, UniProt P25101); assay type: cell membranes, Membrane; details: cho-k1; also: in other assays of this panel Not Active means under 50% inhibition at 10 µM
T1 sequence (P25101 whole entry): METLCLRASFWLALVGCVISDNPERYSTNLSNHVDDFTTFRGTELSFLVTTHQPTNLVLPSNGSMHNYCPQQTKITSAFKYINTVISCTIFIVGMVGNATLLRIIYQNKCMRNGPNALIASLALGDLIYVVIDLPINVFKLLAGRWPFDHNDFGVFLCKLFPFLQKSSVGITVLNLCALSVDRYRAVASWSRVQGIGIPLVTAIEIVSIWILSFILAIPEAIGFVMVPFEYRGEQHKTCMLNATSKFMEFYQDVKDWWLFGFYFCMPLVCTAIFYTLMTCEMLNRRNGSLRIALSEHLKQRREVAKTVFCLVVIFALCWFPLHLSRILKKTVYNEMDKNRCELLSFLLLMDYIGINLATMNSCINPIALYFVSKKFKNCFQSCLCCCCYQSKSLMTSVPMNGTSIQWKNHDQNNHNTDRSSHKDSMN

[5] = target: T2, Muscarinic acetylcholine receptor M4 (Homo sapiens, UniProt P08173); assay type: cell membranes, CHO-K1, Membrane; details: cho-k1; also: in other assays of this panel Not Active means under 50% inhibition at 10 µM
T2 sequence (P08173 whole entry): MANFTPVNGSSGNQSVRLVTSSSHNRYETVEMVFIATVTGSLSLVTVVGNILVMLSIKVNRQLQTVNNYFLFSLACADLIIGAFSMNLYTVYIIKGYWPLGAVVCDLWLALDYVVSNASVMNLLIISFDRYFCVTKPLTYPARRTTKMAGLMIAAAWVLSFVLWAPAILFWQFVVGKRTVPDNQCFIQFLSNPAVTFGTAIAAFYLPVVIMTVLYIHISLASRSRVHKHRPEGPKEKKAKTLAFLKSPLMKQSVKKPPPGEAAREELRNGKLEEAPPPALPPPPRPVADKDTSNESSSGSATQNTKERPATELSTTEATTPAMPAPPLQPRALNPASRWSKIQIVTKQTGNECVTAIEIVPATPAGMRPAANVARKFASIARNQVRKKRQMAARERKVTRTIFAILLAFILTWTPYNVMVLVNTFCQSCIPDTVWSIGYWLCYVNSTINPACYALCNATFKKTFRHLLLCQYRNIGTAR

[6] = target: T3, Alpha-1B adrenergic receptor (Rattus norvegicus, UniProt P15823); assay: DRUGMATRIX: Alpha-1B adrenergic receptor radioligand binding (ligand: prazosin); assay type: cell membranes, Wistar, Liver, Membrane; details: Not Active = under 50% inhibition at 10 µM
T3 sequence (P15823 whole entry): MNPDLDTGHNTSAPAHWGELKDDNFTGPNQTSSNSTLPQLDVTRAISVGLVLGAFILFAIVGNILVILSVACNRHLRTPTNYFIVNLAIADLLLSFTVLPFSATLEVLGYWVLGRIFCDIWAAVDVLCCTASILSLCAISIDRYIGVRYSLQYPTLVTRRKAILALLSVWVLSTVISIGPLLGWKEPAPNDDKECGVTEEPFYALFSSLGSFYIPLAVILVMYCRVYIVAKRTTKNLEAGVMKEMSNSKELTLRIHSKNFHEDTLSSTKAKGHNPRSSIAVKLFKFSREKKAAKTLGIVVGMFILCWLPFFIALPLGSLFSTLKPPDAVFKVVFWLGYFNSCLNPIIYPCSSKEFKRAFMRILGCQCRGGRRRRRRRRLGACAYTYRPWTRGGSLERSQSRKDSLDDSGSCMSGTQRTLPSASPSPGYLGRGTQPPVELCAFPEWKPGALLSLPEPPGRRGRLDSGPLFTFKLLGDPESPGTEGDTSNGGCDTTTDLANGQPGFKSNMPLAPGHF

[7] = target: T4, 3-hydroxy-3-methylglutaryl-coenzyme A reductase (Homo sapiens, UniProt P04035); design: species or system Escherichia coli
T4 sequence (P04035 whole entry): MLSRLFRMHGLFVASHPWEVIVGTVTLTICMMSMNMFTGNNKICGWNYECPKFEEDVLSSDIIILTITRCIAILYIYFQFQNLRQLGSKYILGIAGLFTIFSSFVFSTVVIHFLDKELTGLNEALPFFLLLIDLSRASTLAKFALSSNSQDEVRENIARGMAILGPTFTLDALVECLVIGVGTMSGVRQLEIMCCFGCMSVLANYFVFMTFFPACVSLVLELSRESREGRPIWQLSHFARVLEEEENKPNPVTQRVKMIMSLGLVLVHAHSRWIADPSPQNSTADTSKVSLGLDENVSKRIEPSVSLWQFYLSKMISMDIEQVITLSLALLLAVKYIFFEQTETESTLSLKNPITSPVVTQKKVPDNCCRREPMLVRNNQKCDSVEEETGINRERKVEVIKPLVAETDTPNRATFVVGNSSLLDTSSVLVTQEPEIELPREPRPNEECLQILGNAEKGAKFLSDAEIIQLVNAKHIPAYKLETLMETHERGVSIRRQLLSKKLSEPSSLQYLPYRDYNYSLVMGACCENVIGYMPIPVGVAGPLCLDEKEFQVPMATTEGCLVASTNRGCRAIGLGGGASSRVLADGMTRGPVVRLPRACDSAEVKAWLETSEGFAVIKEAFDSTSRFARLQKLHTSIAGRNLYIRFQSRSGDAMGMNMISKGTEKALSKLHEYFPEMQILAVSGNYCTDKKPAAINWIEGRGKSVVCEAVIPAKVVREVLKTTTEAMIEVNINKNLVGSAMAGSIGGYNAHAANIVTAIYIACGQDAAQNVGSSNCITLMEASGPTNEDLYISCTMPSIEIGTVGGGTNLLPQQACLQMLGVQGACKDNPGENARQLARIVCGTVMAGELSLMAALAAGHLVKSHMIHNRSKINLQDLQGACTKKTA

Matrix metalloproteinase-9, sequence (P14780 whole entry): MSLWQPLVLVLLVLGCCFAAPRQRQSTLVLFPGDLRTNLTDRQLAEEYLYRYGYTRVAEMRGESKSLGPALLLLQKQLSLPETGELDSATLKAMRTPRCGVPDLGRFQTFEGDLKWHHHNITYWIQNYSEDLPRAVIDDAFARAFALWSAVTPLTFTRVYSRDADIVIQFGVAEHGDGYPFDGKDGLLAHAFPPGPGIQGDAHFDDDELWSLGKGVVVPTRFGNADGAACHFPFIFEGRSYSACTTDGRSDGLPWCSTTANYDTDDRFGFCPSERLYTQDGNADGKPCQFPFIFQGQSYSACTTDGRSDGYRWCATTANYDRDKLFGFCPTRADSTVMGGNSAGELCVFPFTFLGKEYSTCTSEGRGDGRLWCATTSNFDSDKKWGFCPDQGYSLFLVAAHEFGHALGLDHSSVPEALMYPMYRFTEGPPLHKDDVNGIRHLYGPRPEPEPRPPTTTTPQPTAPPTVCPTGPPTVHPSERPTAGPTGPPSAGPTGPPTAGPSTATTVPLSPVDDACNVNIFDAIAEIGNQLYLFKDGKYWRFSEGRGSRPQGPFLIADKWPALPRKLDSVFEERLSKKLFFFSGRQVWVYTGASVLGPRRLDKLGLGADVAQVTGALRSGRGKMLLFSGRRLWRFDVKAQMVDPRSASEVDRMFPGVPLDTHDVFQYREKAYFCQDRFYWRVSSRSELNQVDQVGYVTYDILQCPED

C[N+](C)(C)CCOC(N)=O.[Cl-] [CARBACHOL]
Not Active: IC50 [1] | IC50 [2] | Ki [2] | IC50 [3] | Ki [3] | IC50 [4] | IC50 [5] | IC50 [6] | IC50 [7]

CCCCCCNC(=O)n1cc(F)c(=O)[nH]c1=O [CARMOFUR]
Not Active: IC50 [1] | IC50 [2] | Ki [2] | IC50 [3] | Ki [3] | IC50 [4] | IC50 [5] | IC50 [6] | IC50 [7]

Cl.NC[C@H]1CC[C@H](C(=O)Oc2ccc(CCC(=O)O)cc2)CC1 [CETRAXATE HYDROCHLORIDE]
Not Active: IC50 [1] | IC50 [2] | Ki [2] | IC50 [3] | Ki [3] | IC50 [4] | IC50 [5] | IC50 [6] | IC50 [7]

CC(C)Cc1ccc([C@H](C)C(=O)O)cc1 [DEXIBUPROFEN]
Not Active: IC50 [1] | IC50 [2] | Ki [2] | IC50 [3] | Ki [3] | IC50 [4] | IC50 [5] | IC50 [6] | IC50 [7]

O=c1[nH]cnc2c1ncn2[C@H]1CC[C@@H](CO)O1 [DIDANOSINE]
Not Active: IC50 [1] | IC50 [2] | Ki [2] | IC50 [3] | Ki [3] | IC50 [4] | IC50 [5] | IC50 [6] | IC50 [7]

ClC1=C(Cl)[C@]2(Cl)[C@@H]3[C@@H]4C[C@@H]([C@H]5O[C@@H]45)[C@@H]3[C@@]1(Cl)C2(Cl)Cl [DIELDRIN]
Not Active: IC50 [1] | IC50 [2] | Ki [2] | IC50 [3] | Ki [3] | IC50 [4] | IC50 [5] | IC50 [6] | IC50 [7]

CCN1CCN(c2cc3c(cc2F)c(=O)c(C(=O)O)cn3C2CC2)CC1 [ENROFLOXACIN]
Not Active: IC50 [1] | IC50 [2] | Ki [2] | IC50 [3] | Ki [3] | IC50 [4] | IC50 [5] | IC50 [6] | IC50 [7]

CC[C@H]1OC(=O)[C@H](C)[C@@H](O[C@H]2C[C@@](C)(OC)[C@@H](O)[C@H](C)O2)[C@H](C)[C@@H](O[C@@H]2O[C@H](C)C[C@H](N(C)C)[C@H]2O)[C@](C)(O)C[C@@H](C)C(=O)[C@H](C)[C@@H](O)[C@]1(C)O [ERYTHROMYCIN]
Not Active: IC50 [1] | IC50 [2] | Ki [2] | IC50 [3] | Ki [3] | IC50 [4] | IC50 [5] | IC50 [6] | IC50 [7]

CC12CCC(CC1)C(C)(C)O2 [EUCALYPTOL]
Not Active: IC50 [1] | IC50 [2] | Ki [2] | IC50 [3] | Ki [3] | IC50 [4] | IC50 [5] | IC50 [6] | IC50 [7]

NC(N)=Nc1nc(CSCCC(N)=NS(N)(=O)=O)cs1 [FAMOTIDINE]
Not Active: IC50 [1] | IC50 [2] | Ki [2] | IC50 [3] | Ki [3] | IC50 [4] | IC50 [5] | IC50 [6] | IC50 [7]

COC(=O)Nc1nc2ccc(Sc3ccccc3)cc2[nH]1 [FENBENDAZOLE]
Not Active: IC50 [1] | IC50 [2] | Ki [2] | IC50 [3] | Ki [3] | IC50 [4] | IC50 [5] | IC50 [6] | IC50 [7]

COc1cc(/C=C/C(=O)O)ccc1O [FERULATE]
Not Active: IC50 [1] | IC50 [2] | Ki [2] | IC50 [3] | Ki [3] | IC50 [4] | IC50 [5] | IC50 [6] | IC50 [7]

Nc1nc(F)nc2c1ncn2[C@@H]1O[C@H](CO)[C@@H](O)[C@@H]1O [FLUDARABINE]
Not Active: IC50 [1] | IC50 [2] | Ki [2] | IC50 [3] | Ki [3] | IC50 [4] | IC50 [5] | IC50 [6] | IC50 [7]

C[C@H](C(=O)O)c1ccc2oc(-c3ccc(F)cc3)nc2c1 [FLUNOXAPROFEN]
Not Active: IC50 [1] | IC50 [2] | Ki [2] | IC50 [3] | Ki [3] | IC50 [4] | IC50 [5] | IC50 [6] | IC50 [7]
